{"source": "patent US7252953B2", "about": "“Method of detecting and preventing Alzheimer's disease, particularly at prodromal and early stages” (United States of America Department of Veterans Affairs, priority 2002, dated 2007)", "key": {"TNF-α [1]": {"tested_on": "TNF-α", "assay": "TNF-α release in N9 clonal murine microglial cells", "format": "cell-based", "settings": "for TNF-α release induced by the activator alone: single dose", "experimental": "(§1) Primary microglial cultures were prepared from neonatal mouse (C57BL6) brains as previously described (Reference 29) and maintained in Delbecco's modified Eagle's medium with F-12 nutrient mixture (DMEM/F12) containing 10% fetal bovine sera (FBS) and antibiotics. N9 clonal murine microglial cell cultures were maintained in Iscoves modified Delbecco's medium (IMDM) containing 5% heat-inactivated FBS, 2 mM L-glutamine, 50 μM 2-mercaptoethanol and antibiotics. Treatment of both primary and N9 microglial cells were performed under serum-free conditions. Freshly solublized Aβ (BioSource, Camarillo, Calif.) peptides were prepared and characterized as previously described (References 30 and 44) and were used in all in vitro experiments. Unless specified, cells were always pretreated with sAβ for 5 min and then followed by challenge with α-thrombin (100 nM or as indicated), glutamate (2 mM) or LPS (5 ng/ml).\n(§2) TNF-α production in microglial culture media was measured and standardized as previously described (Reference 29).\n(§3) Given our results that sAβ disrupts GRK function and inhibits GPCR desensitization in microglia, we next investigated whether such signaling dysregulation might lead to cellular functional changes in microglia. Both primary and N9 clonal murine microglial cultures were used and TNF-α secretion in culture media was measured as an outcome. […] Moreover, the potentiation effect of sAβ on thrombin and glutamate-induced microglial activation was dose-dependent, with a minimal effective concentration (ECmin) of 20 nM and a maximal EC (ECmax) of 500 nM. Furthermore, the enhancement effect was not observed if sAβ was given after (10 min) thrombin or glutamate treatments. […] Together with the evidence that sAβ inhibits GRK-GPCR interactions and causes prolongation of GPCR signaling, we conclude that sAβ, by disrupting GRK function, alters microglial reactivity to specific GPCR activators.\nFIG. 6A, pretreatment with sAβ1-42 potentiated (p<0.01) TNF-α release induced by increasing doses of thrombin (Thr) as indicated from primary mouse brain microglial cultures. n=4. […] The ECmin and ECmax for sAβ's potentiation are approximately 20 nM and 500 nM, respectively. n=6."}, "GRK5": {"tested_on": "GRK5", "assay": "GRK5 subcellular distribution in sAβ-treated microglial cells (immunocytochemistry, semi-quantified)", "format": "cell-based, murine", "settings": "ICC; for translocation of GRK5 from cell membrane to cytosol: 5 min, primary murine microglial cells, serum-free medium", "experimental": "(§4) Primary microglial cultures were prepared from neonatal mouse (C57BL6) brains as previously described (Reference 29) and maintained in Delbecco's modified Eagle's medium with F-12 nutrient mixture (DMEM/F12) containing 10% fetal bovine sera (FBS) and antibiotics. N9 clonal murine microglial cell cultures were maintained in Iscoves modified Delbecco's medium (IMDM) containing 5% heat-inactivated FBS, 2 mM L-glutamine, 50 μM 2-mercaptoethanol and antibiotics. Treatment of both primary and N9 microglial cells were performed under serum-free conditions.\nMicroglial cells were seeded onto poly-L-lysine-coated 8-chamber slides at a density of 1×10^4/well. After various treatments, cells were immediately fixed with pre-chilled (4° C.) 5% acetic acid in methanol for 45 min at 4° C., followed by washing with PBS. The fixed cells were blocked and double-stained with phalloidin-FITC (1:1,000) and anti-GRK5 (1:500) or GRK2 (1:500). Secondary antibody-Cy3 conjugates (1:500) staining, washing, mounting and confocal microscopic visualization were performed routinely as previously described (Reference 29).\nBriefly, the selected cell image corresponding to GRK staining, was copied, enlarged, inverted and rotated to an appropriate position for quantification with NIH Image. […] FIGS. 3E and F show the examples of profiles for the solid-line indicated levels in FIGS. 3C and D, respectively. The dark and light grey areas in FIGS. 3E and F represent membrane and Cyto, respectively. The sum of areas for membrane and Cyto from all slices in each cell represents GRK subcellular distribution in this particular cell. For each treatment, 20 randomly selected cells were quantified and the average data were shown.\nMicroglial-mediated inflammation is an important pathological component of AD (Reference 28). […] Thrombin, a serine protease is known to activate protease-activated GPCRs, (PARs) such as PAR1 (Reference 29) and PAR4 in microglia.\nN9 microglial cells were treated with sAβ1-42 (500 nM) for 5 minutes. […] The detailed methods for semi-quantification of GRK subcellular distribution are described in Methods section (above)."}, "[Ca^2+]i": {"tested_on": "[Ca^2+]i", "assay": "Ca2+ imaging (Fluo-4) in microglial cells", "format": "cell-based, murine", "experimental": "as §1\nWe measured [Ca^2+]i in microglial cells using Fluo-4 (2 μM) with the aid of a Nikon BioRadiance triple laser scanning confocal microscope. Image collection, quantification and data analysis were performed as previously described (Reference 29).\n(§5) In previous studies, we found thrombin signaling via PARs in microglial cells involving [Ca^2+]i increase and transient activation of both p38 and p44/42 mitogen-activated protein kinases (MAPKs) (Reference 29). To understand potential consequences of GRK dysfunction induced by sAβ, for these studies we also assessed changes in thrombin signaling in sAβ-pretreated microglial cells.\n(§6) FIG. 5A, N9 microglial cells were pre-treated with 500 nM sAβ1-42 (arrow “1”) followed by 100 nM thrombin treatment (arrow “2”). Changes in [Ca^2+]i were measured as previously described (Reference 29) from three separate experiments. […] For both FIGS. 5B and 5C, lane M=Marker, 1=Control (0 min), 2=Control (25 min), 3=Aβ1-42 (25 min), 4=Thrombin (20 min), 5=Aβ1-42+thrombin (20 min post-Aβ), 6=Control (24 h), 7=Aβ1-42 (24 h), 8=Thrombin (24 h) and 9=Aβ1-42+thrombin (24 h post-Aβ). “P” and “T” indicate phosphorylated and total p38 or p44/42 MAPKs, respectively."}, "TNF-α [2]": {"tested_on": "TNF-α", "assay": "TNF-α release in primary mouse brain microglial cultures", "format": "cell-based", "settings": "5 min pretreatment, FIG. 6A", "experimental": "as §1, §2, §3\nFIG. 6A, pretreatment with sAβ1-42 potentiated (p<0.01) TNF-α release induced by increasing doses of thrombin (Thr) as indicated from primary mouse brain microglial cultures. n=4. […]"}, "p44/42 MAPK": {"tested_on": "p44/42 MAPK", "assay": "p44/42 MAPK phosphorylation in microglial cells (WB)", "format": "cell-based, murine", "settings": "substance alone", "experimental": "as §1\n(§7) Cultured cells were lysed in pre-chilled 2×IP buffer I (Tris, 20 mM, pH 7.4; NaCl, 300 mM; EDTA, 2 mM; 2 mM EGTA, pH 8.0; 0.4 mM sodium ortho-vanadate, 2% Triton X-100; 1% NP-40; 0.4 mM PMSF) supplemented both with phosphatase and protease inhibitor cocktails. After centrifugation, the supernatants were collected and total protein concentrations were determined by the bicinchoninic acid assay (BCA). Equal amounts (250 μg) of cell lysates from each group were mixed with 20 μl (˜5 μg) of either PAR1 or PAR4 antibodies, and brought to a total volume of 1 ml in 1×IP buffer. Following a 1 hour incubation at 4° C., appropriate secondary antibody-agarose conjugates were added followed by incubation (30 min with agitation), centrifugation and sufficient washes. The pellets were resuspended in 30 μl of electrophoresis sample buffer and boiled for 5 min. The supernatants were directly used for polyacrylamide sodium dodecyl sulfate gel electrophoresis (SDS-PAGE) and WB analysis. To prepare subcellular fractions of brain samples, we homogenized fresh or fresh-frozen tissues in Tris buffered saline solution (Tris, 10 mM, pH 7.4; NaCl, 150 mM; EDTA, 1 mM; 1 mM EGTA, pH 8.0; 0.2 mM sodium ortho-vanadate) supplemented with protease inhibitor cocktails. After centrifugation (12,000 g at 4° C. for 15 min), the supernatants were collected as cytosolic fractions. The pellets were resuspended in 1×IP buffer containing protease inhibitor cocktail. Following brief sonication and centrifugation (12,000 g at 4° C. for 15 min), the supernatants were collected as membrane fractions. Both antibodies to GRK2 and GRK5 (Santa Cruz) were diluted 1:500 for WB, other routine procedures, WB for total and phospho-p44/42 MAPK, and semi-quantitative analysis of protein band density were performed as previously described (Reference 29).\nas §5, §6"}, "PAR4-GRK2": {"tested_on": "PAR4-GRK2", "assay": "GRK-PAR binding in microglial cells by IP and WB: PAR4-GRK2", "format": "cell-based, murine", "settings": "thrombin 100 nM alone, 30 seconds, compared to untreated microglial cells", "experimental": "as §4, with “conditions. Freshly solublized Aβ (BioSource, Camarillo, Calif.) peptides were prepared and characterized as previously described (References 30 and 44) and were used in all in vitro experiments. […]” for “conditions.”\n(§8) Cultured cells were lysed in pre-chilled 2×IP buffer I (Tris, 20 mM, pH 7.4; NaCl, 300 mM; EDTA, 2 mM; 2 mM EGTA, pH 8.0; 0.4 mM sodium ortho-vanadate, 2% Triton X-100; 1% NP-40; 0.4 mM PMSF) supplemented both with phosphatase and protease inhibitor cocktails. After centrifugation, the supernatants were collected and total protein concentrations were determined by the bicinchoninic acid assay (BCA). […] Both antibodies to GRK2 and GRK5 (Santa Cruz) were diluted 1:500 for WB, other routine procedures, WB for total and phospho-p44/42 MAPK, and semi-quantitative analysis of protein band density were performed as previously described (Reference 29). […]"}, "PAR4-GRK5": {"tested_on": "PAR4-GRK5", "assay": "GRK-PAR binding in microglial cells by IP and WB: PAR4-GRK5", "format": "cell-based, murine", "settings": "thrombin 100 nM alone, 30 seconds, compared to untreated microglial cells", "experimental": "as §4, with “conditions. Freshly solublized Aβ (BioSource, Camarillo, Calif.) peptides were prepared and characterized as previously described (References 30 and 44) and were used in all in vitro experiments. […]” for “conditions.”\nas §8"}, "PAR1-GRK2": {"tested_on": "PAR1-GRK2", "assay": "GRK-PAR binding in microglial cells by IP and WB: PAR1-GRK2", "format": "cell-based, murine", "settings": "thrombin 100 nM alone, 30 seconds, compared to untreated microglial cells", "experimental": "as §4, with “conditions. Freshly solublized Aβ (BioSource, Camarillo, Calif.) peptides were prepared and characterized as previously described (References 30 and 44) and were used in all in vitro experiments. […]” for “conditions.”\nas §8"}, "p38 MAPK": {"tested_on": "p38 MAPK", "assay": "p38 MAPK phosphorylation in microglial cells (WB)", "format": "cell-based, murine", "settings": "substance alone", "experimental": "as §1, §7, §5, §6"}, "[3]": {"settings": "5 min pretreatment, N9 cells, FIG. 6B"}, "[4]": {"settings": "within 20 min post-Aβ treatment"}}}
{"molecule": "N[C@@H](CCC(=O)O)C(=O)O", "note": "[glutamate]", "values": [{"measurement": "TNF-α release induced by the activator alone", "setting": "TNF-α [1]; N9 cells, FIG. 6B", "value": "significantly stimulated"}]}
{"molecule": "sAβ1-40: Freshly solubilized soluble β-amyloid 1-40 peptide (BioSource)", "values": [{"measurement": "translocation of GRK5 from cell membrane to cytosol", "setting": "GRK5; 50 nM peptide", "value": "not"}]}
{"molecule": "sAβ1-42: Freshly solubilized soluble β-amyloid 1-42 peptide (BioSource), mixture of monomeric and oligomeric Aβ", "values": [{"measurement": "change of free [Ca^2+]i", "setting": "[Ca^2+]i; sAβ1-42 500 nM alone", "value": "slow and moderate increase"}, {"measurement": "time for [Ca^2+]i to return to basal levels", "setting": "[Ca^2+]i; sAβ1-42 500 nM alone", "value": "≤ 4", "unit": "min"}, {"measurement": "translocation of GRK5 from cell membrane to cytosol", "setting": "GRK5; 50 nM peptide", "value": "To a lesser extent, similar GRK5 changes were also observed"}, {"measurement": "translocation of GRK5 from cell membrane to cytosol", "setting": "GRK5; 500 nM peptide", "value": "induced a rapid translocation of GRK5 from cell membrane to cytosol"}, {"measurement": "translocation of GRK5 from membrane to cytosol compartment", "setting": "GRK5; 500 nM, 5 minutes, N9 microglial cells", "value": "induced a rapid translocation of GRK5 from membrane to cytosol compartment"}, {"measurement": "effect of sAβ pretreatment on LPS-induced TNF-α release", "setting": "TNF-α [1]; [3]", "value": "not"}, {"measurement": "effect of sAβ pretreatment on glutamate-induced TNF-α release", "setting": "TNF-α [1]; [3]", "value": "dose-dependently potentiated"}, {"measurement": "effect of sAβ pretreatment on thrombin-induced TNF-α release", "setting": "TNF-α [1]; [3]", "value": "dose-dependently potentiated"}, {"measurement": "enhancement of TNF-α release when sAβ is given after thrombin or glutamate (post-treatment)", "setting": "TNF-α [1]; sAβ given 10 min after thrombin or glutamate", "value": "not"}, {"measurement": "effect of sAβ pretreatment on thrombin-induced TNF-α release", "setting": "TNF-α [2]", "value": "potentiated"}]}
{"molecule": "thrombin", "values": [{"measurement": "p44/42 MAPK phosphorylation", "setting": "p44/42 MAPK; 24 h", "value": "returned to basal levels"}, {"measurement": "p44/42 MAPK phosphorylation", "setting": "p44/42 MAPK; [4]", "value": "increased phosphorylation"}, {"measurement": "increase of PAR4 binding to GRK2", "setting": "PAR4-GRK2", "value": "~2", "unit": "fold"}, {"measurement": "[Ca^2+]i above basal levels after the rapid decrease", "setting": "[Ca^2+]i; thrombin alone (100 nM)", "value": "approximately 100 nM"}, {"measurement": "change of [Ca^2+]i", "setting": "[Ca^2+]i; thrombin alone (100 nM)", "value": "steep and sharp increase"}, {"measurement": "duration of the [Ca^2+]i level above basal", "setting": "[Ca^2+]i; thrombin alone (100 nM)", "value": "at least 4 min"}, {"measurement": "change of [Ca^2+]i", "setting": "[Ca^2+]i; thrombin alone (100 nM), listed as Thrombin", "value": "sharp increase and rapidly decrease"}, {"measurement": "increase of PAR4 binding to GRK5", "setting": "PAR4-GRK5", "value": "~4", "unit": "fold"}, {"measurement": "increase of PAR1 binding to GRK2", "setting": "PAR1-GRK2", "value": "~30", "unit": "fold"}, {"measurement": "p38 MAPK phosphorylation", "setting": "p38 MAPK; 24 h", "value": "returned to basal levels"}, {"measurement": "p38 MAPK phosphorylation", "setting": "p38 MAPK; [4]", "value": "increased phosphorylation"}, {"measurement": "TNF-α release induced by the activator alone", "setting": "TNF-α [1]; N9 cells, FIG. 6B", "value": "significantly stimulated"}]}
